Source: US12502379B2, “Ponesimod for avoiding worsening of fatigue-related symptoms in multiple sclerosis patients” (Vanda Pharmaceuticals Inc., priority 2019, dated 2025)

Legend:
[1] = ALT increase relative to ULN; format: in vivo, human; details: ponesimod 20 mg arm, teriflunomide 14 mg arm
[2] = 12-lead ECG heart rate on Day 1, change from pre-dose; format: in vivo, human
Description: As per up-titration regimen, the dose of ponesimod on Day 1 is 2 mg.

[3] = test system: adult subjects with relapsing MS; test: FSIQ-RMS weekly symptoms score, change from baseline to Week 108; format: in vivo, human; details: FSIQ-RMS weekly symptoms score
Source text: In some embodiments, the patient-reported outcome questionnaire is the Fatigue Symptoms and Impact Questionnaire—Relapsing Multiple Sclerosis (FSIQ-RMS) (available from Mapi Research Trust). The FSIQ-RMS is an MS specific 20-item PRO measure that comprises 2 domains: one measuring MS symptoms and one measuring MS-related impacts. See Hudgens S, et al., Development and Validation of the FSIQ-RMS: A New Patient-Reported Questionnaire to Assess Symptoms and Impacts of Fatigue in Relapsing Multiple Sclerosis. Value Health. 2019 April; 22 (4): 453-466. doi: 10.1016/j.jval.2018.11.007. Epub 2019 Feb. 21. PubMed PMID: 30975397. With 7 symptom items and 13 impact items (in 3 impacts subdomains: physical, cognitive and emotional, and coping), the FSIQ-RMS is a comprehensive, valid, and reliable measure of fatigue-related symptoms and impacts in RMS patients. FIG. 2B depicts a conceptual framework for the FSIQ-RMS.
In some embodiments, the patient-reported outcome questionnaire is the symptom domain of the FSIQ-RMS. The FSIQ-RMS symptom domain (FSIQ-RMS-S) consists of seven items assessing fatigue-related symptoms with a recall period of 24 hours measured on an 11-point numeric rating scale; the standardized symptom domain score ranges from 0 to 100 with a higher score indicating greater fatigue. This domain (i.e., section 1 of the questionnaire) is completed on 7 consecutive days.
The patient-reported outcome questionnaire used for the below Examples is the Fatigue Symptoms and Impact Questionnaire-Relapsing Multiple Sclerosis (FSIQ-RMS). The FSIQ-RMS is an MS specific 20-item PRO measure that comprises 2 domains: one measuring MS symptoms (7 items) and one measuring MS-related impacts (13 items). The 7 symptom items and 13 impact items (in 3 impacts subdomains: physical, cognitive and emotional, and coping) are presented below.
For the MS symptoms domain, the FSIQ-RMS asks about a patient's fatigue-related symptoms of relapsing MS over the past 24 hours while doing routine daily activities (e.g., housework, yard work, shopping, working, etc.) for Items 1-6 or while at rest (e.g., reading a book, watching TV, etc.) for Item 7. Patients are asked to select a response on a scale of Oto 10 that best describes their experience and are asked to not skip any questions, with no answers being right or wrong.
Secondary efficacy variables and testing strategy: Four secondary efficacy endpoints were analyzed as per the statistical testing strategy outlined in FIG. 1. • Change from baseline to Week 108 in fatigue-related symptoms as measured by the symptoms domain of the FSIQ-RMS patient-reported outcome [Fatigue] • Cumulative number of combined unique active lesions from baseline to Week 108 on brain MRI [CUALs] • Time to first 12-week confirmed disability accumulation (CDA) from baseline to EOS on Expanded Disability Status Scale (EDSS) [12-week CDA] • Time to first 24-week CDA from baseline to EOS on EDSS [24-week CDA]
The FSIQ-RMS symptom domain (FSIQ-RMS-S) consists of seven items assessing fatigue-related symptoms with a recall period of 24 hours measured on an 11-point numeric rating scale; the standardized symptom domain score ranges from 0 to 100 with a higher score indicating greater fatigue. This domain (i.e., section 1 of the questionnaire) is completed on 7 consecutive days.
FSIQ-RMS was completed during the pre-randomization period, at Visits 6, 7, 10, and 12 (Weeks 12, 24, 60, 84), 14 (EOT), and at unscheduled visits due to relapses (R1, R2, etc.) or other unscheduled visits (U1, U2, etc.) as described below. If applicable, FSIQ-RMS was performed at the corresponding visits in the PTOP.
The completion of the FSIQ-RMS during the pre-randomization period was done as follows: At Visit 1 (Screening), subjects who appear eligible based on the assessments made during this visit (but prior to the results from the laboratory assessments are received) were provided with the electronic device containing the FSIQ-RMS. […]

[4] = Treatment-emergent adverse events, Safety Set
Description: A prospective, multicenter, randomized, double-blind, active controlled, parallel-group, phase III, superiority study was conducted.
The Safety Set (SAF) included all randomized subjects who received at least one dose of study treatment. Subjects were analyzed based on actual treatment taken, not randomized treatment.

[5] = Reasons for premature treatment discontinuation; format: in vivo; details: ponesimod 20 mg, teriflunomide 14 mg
Description: A total of 1468 subjects were screened. Of those, 1133 subjects were randomized (567 to ponesimod 20 mg and 566 to teriflunomide 14 mg) across 162 sites in 28 countries, and 1131 subjects received at least one dose of study drug. The disposition of subjects is summarized in Table 1 and a summary of reasons (primary reason) for treatment discontinuation are shown in Table 2. Overall treatment and study discontinuation were balanced across both treatment arms. A total of 6.5% and 2.5% of the subjects discontinued due to AEs or tolerability related reasons in ponesimod 20 mg and teriflunomide 14 mg, respectively, while 1.9% and 4.3% discontinued due to efficacy related reasons. There were 2 deaths reported during the study—both on teriflunomide 14 mg.

[6] = other S1P receptor modulators, for comparison; cited from earlier work
[7] = patients without Gd+T1 lesions at baseline
[8] = Day 1 (ponesimod dose 2 mg per up-titration), Safety Set, N = 565 / 566
[9] = Safety Set, ponesimod 20 mg N = 565, teriflunomide 14 mg N = 566
[10] = ponesimod 20 mg, teriflunomide 14 mg

Structure (SMILES): C/C(O)=C(\C#N)C(=O)Nc1ccc(C(F)(F)F)cc1 [Teriflunomide]
- Proportion of subjects who experienced ALT increase >3×ULN [1]: 8.3%
- Proportion of subjects who experienced ALT increase >8×ULN [1]: 2.1%
- Mean heart rate reduction compared to pre-dose (maximum) ([2]; Day 1, 2-hours post dose, ponesimod arm dose on Day 1 is 2 mg): −1.7 bpm
- Subjects with asymptomatic post-dose HR≤40 bpm ([2]; Day 1, all had pre-treatment HR<55 bpm): none
- Change From Baseline to Week 108: Stable or Improved ([3]; patients with baseline fatigue below the median): about 55%
- Change From Baseline to Week 108: Stable or Improved [3, 7]: 57.0%
- Change From Baseline to Week 108: Worsened (≥6.3) [3, 7]: 43.0%
- Change From Baseline to Week 108: Stable or Improved ([3]; patients without Gd+T1 lesions at baseline, listed as teriflunomide): about 57%
- AESI effect on heart rate and rhythm (including hypotension) on Day 1: Subjects with at least one AE [4, 8]: 0.4%
- AESI heart rate and rhythm on Day 1, PT: Atrioventricular block first degree [4, 8]: 0 n
- AESI heart rate and rhythm on Day 1, PT: Bradycardia [4, 8]: 0 n
- AESI heart rate and rhythm on Day 1, PT: Bundle branch block left [4, 8]: 0 n
- AESI heart rate and rhythm on Day 1, PT: Bundle branch block right [4, 8]: 0 n
- AESI heart rate and rhythm on Day 1, PT: Defect conduction intraventricular [4, 8]: 0 n
- AESI heart rate and rhythm on Day 1, PT: Sinus arrhythmia [4, 8]: 0 n
- AESI heart rate and rhythm on Day 1, PT: Sinus bradycardia [4, 8]: 0 n
- Subject with at least one AE (treatment-emergent) [4, 9]: 88.2%
- Subject with at least one AE leading to study drug discontinuation [4, 9]: 6.0%
- Subject with at least one Serious AE [4, 9]: 8.1%
- TEAEs leading to premature discontinuation of study drug, SOC: Eye disorders [4, 9]: 0 n
- TEAEs leading to premature discontinuation of study drug, SOC: Respiratory, thoracic and mediastinal disorders [4, 9]: 0 n
- TEAEs leading to premature discontinuation of study drug, SOC: Vascular disorders [4, 9]: 0 n
- Treatment-emergent AESI: Hepatobiliary disorders/Liver enzyme abnormality [4, 9]: 14.5%
- Treatment-emergent AESI: Hypertension [4, 9]: 9.0%
- Treatment-emergent AESI: Pulmonary events [4, 9]: 2.7%
- TEAE: ALT increased [4, 10]: 9.4%
- TEAE: headache [4, 10]: 12.7%
- TEAE: nasopharyngitis [4, 10]: 16.8%
- TEAE: upper respiratory tract infection [4, 10]: 10.4%
- Subjects who discontinued due to AEs or tolerability related reasons [5]: 2.5%

Structure (SMILES): CCc1cc(/C(C)=N/OCc2ccc(C3CCCCC3)c(C(F)(F)F)c2)ccc1CN1CC(C(=O)O)C1 [siponimod]
- ECG HR effect: nadir post-dose [6]: 3 to 4 h

Structure (SMILES): CCCCCCCCc1ccc(CCC(N)(CO)CO)cc1 [fingolimod]
- ECG HR effect: nadir post-dose [6]: ~6 h
